The text below walks through data of patent US9708286B2, “Ingenol-3-acylates III and ingenol-3-carbamates” (LEO Laboratories Limited, priority 2010, dated 2017).

Format in all cases: cell-based
Experiment [1] relates to PMN's (polymorphonuclear leukocytes). The experiment in a line: Neutrophil oxidative burst. The following applies: Leukocyte, 40 min, read-out: Neutrophil oxidative burst Rel EC50 range, PMN from buffy coats, 40 min at RT, hydroethidine fluorescence; normalized to 5×10^−7 M PEP0005. The essentials: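 Human buffy-coat neutrophils (2.5×10^5/well) in HBSS with 0.1% BSA, 5 mM glucose treated with compound premixed with 10 μM hydroethidine for 40 min at RT; fluorescence read at 485/579 nm. Normalized to 5×10^−7 M PEP0005; Rel EC50 is midway between fitted top and bottom, Abs EC50 gives 50% of PEP0005 maximum.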

The next experiment deals with HeLa cells. The experiment can be described thus: Necrosis assay. The following applies: Homo sapiens, HeLa, 0.5 h, read-out: HeLa necrosis EC50 range. The essentials:
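HeLa cells treated with compound at 10 μM to 400 μM (final) for 30 min at 37° C., viability then measured by PrestoBlue fluorescence (ex 535/em 630 nm). Normalized to 1% DMSO and 400 μM ingenol mebutate controls; AbsEC50 from four-parameter sigmoidal fit.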

The subject of experiment [2] is Primary human epidermal keratinocytes, HeKa. The experiment can be described thus: HeKa cytokine release (IL-8). The following applies: Homo sapiens, HEKa, 6 h, read-out: HeKa cytokine release (IL-8) Rel EC50 range. The essentials: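 Seeded cells exposed to compound dilutions for 6 h at 37° C; IL-8 in supernatant quantified by MSD sandwich electrochemiluminescence immunoassay. Effects normalized to positive control (1.5×10^−7 M PEP0005), four-parameter sigmoidal fit; Rel EC50 is concentration midway between fitted top and bottom.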

What is called EC50 is the concentration at which the effect is half-maximal.

Where only a bound is given, the exact number is not on record here.

On to `CC1=C[C@]23C(=O)[C@@H](C=C(CO)[C@@H](O)[C@]2(O)[C@H]1OC(=O)c1cc(C(C)(C)C)nn1C)[C@H]1[C@@H](C[C@H]3C)C1(C)C` [Compound 533, Ingenol 3-(5-tert-butyl-2-methyl-pyrazole-3-carboxylate)], for which the values for the EC50 (in experiment [1]; in the experiment on HeLa cells; in experiment [2]) were under 20 nM, under 150 µM and under 20 nM, respectively.

As to `CC1=C[C@]23C(=O)[C@@H](C=C(CO)[C@@H](O)[C@]2(O)[C@H]1OC(=O)N(C)c1ccccc1)[C@H]1[C@@H](C[C@H]3C)C1(C)C` [Compound 705, Ingenol 3-(N-methyl-N-phenyl-carbamate)], the EC50 was under 20 nM in experiment [1], 150 to 350 µM in the experiment on HeLa cells and under 20 nM in experiment [2].

As for `COc1ccccc1-c1noc(C)c1C(=O)O[C@H]1C(C)=C[C@]23C(=O)[C@@H](C=C(CO)[C@@H](O)[C@]12O)[C@H]1[C@@H](C[C@H]3C)C1(C)C` [Compound 519, Ingenol 3-(3-(2-methoxyphenyl)-5-methyl-isoxazole-4-carboxylate)], the EC50 is under 20 nM in experiment [1], under 150 µM with HeLa cells and under 20 nM in experiment [2].

Regarding `CC1=C[C@]23C(=O)[C@@H](C=C(CO)[C@@H](O)[C@]2(O)[C@H]1OC(=O)c1cccn1C)[C@H]1[C@@H](C[C@H]3C)C1(C)C` [Compound 581, Ingenol 3-(1-methylpyrrole-2-carboxylate)], the values for the EC50 (in experiment [1]; with HeLa cells; in experiment [2]) were under 20 nM, 150 to 350 µM and under 20 nM, respectively.

Take `CC1=C[C@]23C(=O)[C@@H](C=C(CO)[C@@H](O)[C@]2(O)[C@H]1OC(=O)c1cc(C)c[nH]1)[C@H]1[C@@H](C[C@H]3C)C1(C)C` [Compound 582, Ingenol 3-(4-methyl-1H-pyrrole-2-carboxylate)]: the EC50 in experiment [1] was under 20 nM; with HeLa cells, 150 to 350 µM; in experiment [2], under 20 nM.

Consider `CC1=C[C@]23C(=O)[C@@H](C=C(CO)[C@@H](O)[C@]2(O)[C@H]1OC(=O)c1c(C)noc1C(F)(F)F)[C@H]1[C@@H](C[C@H]3C)C1(C)C` [Compound 575, Ingenol 3-(3-methyl-5-(trifluoromethyl)isoxazole-4-carboxylate)], for which the EC50 in experiment [1] is under 20 nM; in the experiment with HeLa cells, under 150 µM; in experiment [2], under 20 nM.

For the compound `CC1=C[C@]23C(=O)[C@@H](C=C(CO)[C@@H](O)[C@]2(O)[C@H]1OC(=O)c1ccc(C)n1C)[C@H]1[C@@H](C[C@H]3C)C1(C)C` [Compound 583, Ingenol 3-(1,5-dimethylpyrrole-2-carboxylate)], the figures for the EC50 (in experiment [1]; in the experiment with HeLa cells; in experiment [2]) were under 20 nM, 150 to 350 µM and under 20 nM, respectively.

Take `COc1ccc(-c2cnn(C)c2C(=O)O[C@H]2C(C)=C[C@]34C(=O)[C@@H](C=C(CO)[C@@H](O)[C@]23O)[C@H]2[C@@H](C[C@H]4C)C2(C)C)cc1` [Compound 554, Ingenol 3-(4-(4-methoxyphenyl)-2-methyl-pyrazole-3-carboxylate)]: the concentration for a half-maximal effect (EC50) in experiment [1] is under 20 nM; in the experiment on HeLa cells, under 150 µM; in experiment [2], under 20 nM.

`CC1=C[C@]23C(=O)[C@@H](C=C(CO)[C@@H](O)[C@]2(O)[C@H]1OC(=O)c1c(N2CCCCC2)cnn1C)[C@H]1[C@@H](C[C@H]3C)C1(C)C` [Compound 538, Ingenol 3-(2-methyl-4-(1-piperidyl)pyrazole-3-carboxylate)]: the EC50 in experiment [1] is under 20 nM; in the experiment with HeLa cells, 150 to 350 µM; in experiment [2], 20 to 100 nM.

Turning to `CC1=C[C@]23C(=O)[C@@H](C=C(CO)[C@@H](O)[C@]2(O)[C@H]1OC(=O)c1c(C)cn(C)c1C)[C@H]1[C@@H](C[C@H]3C)C1(C)C` [Compound 541, Ingenol 3-(1,2,4-trimethylpyrrole-3-carboxylate)], the values for the concentration giving a half-maximal response (EC50) (in experiment [1]; in the experiment on HeLa cells; in experiment [2]) were under 20 nM, 150 to 350 µM and under 20 nM, respectively.

Take `CC1=C[C@]23C(=O)[C@@H](C=C(CO)[C@@H](O)[C@]2(O)[C@H]1OC(=O)c1nn(C)cc1Br)[C@H]1[C@@H](C[C@H]3C)C1(C)C` [Compound 570, Ingenol 3-(4-bromo-1-methyl-pyrazole-3-carboxylate)]: the results for the EC50 (in experiment [1]; with HeLa cells; in experiment [2]) were 20 to 100 nM, 150 to 350 µM and over 100 nM, respectively.

Take `CC1=C[C@]23C(=O)[C@@H](C=C(CO)[C@@H](O)[C@]2(O)[C@H]1OC(=O)N(C)C1CCOCC1)[C@H]1[C@@H](C[C@H]3C)C1(C)C` [Compound 747, Ingenol 3-(N-methyl-N-(tetrahydropyran-4-yl)-carbamate)]: the EC50 in experiment [1] was 20 to 100 nM; in the experiment on HeLa cells it was over 350 µM; in experiment [2], over 100 nM.

In the case of `COc1ccc2c(c1)c(C)c(C(=O)O[C@H]1C(C)=C[C@]34C(=O)[C@@H](C=C(CO)[C@@H](O)[C@]13O)[C@H]1[C@@H](C[C@H]4C)C1(C)C)n2C` [Compound 572, Ingenol 3-(5-methoxy-1,3-dimethyl-indole-2-carboxylate)], the EC50 was under 20 nM in experiment [1], under 150 µM with HeLa cells and under 20 nM in experiment [2].

Turning to `CC1=C[C@]23C(=O)[C@@H](C=C(CO)[C@@H](O)[C@]2(O)[C@H]1OC(=O)c1c(C(C)C)noc1C)[C@H]1[C@@H](C[C@H]3C)C1(C)C` [Compound 518, Ingenol 3-(3-isopropyl-5-methyl-isoxazole-4-carboxylate)], the EC50 in experiment [1] was under 20 nM; in the experiment on HeLa cells, under 150 µM; in experiment [2] it was under 20 nM.

`CC1=C[C@]23C(=O)[C@@H](C=C(CO)[C@@H](O)[C@]2(O)[C@H]1OC(=O)c1c(C)coc1C)[C@H]1[C@@H](C[C@H]3C)C1(C)C` [Compound 529, Ingenol 3-(2,4-dimethylfuran-3-carboxylate)]: the results for the EC50 (in experiment [1]; in the experiment on HeLa cells; in experiment [2]) were under 20 nM, under 150 µM and under 20 nM, respectively.

In the case of `CC1=C[C@]23C(=O)[C@@H](C=C(CO)[C@@H](O)[C@]2(O)[C@H]1OC(=O)C1=C(C)C(=O)OC12CCCCC2)[C@H]1[C@@H](C[C@H]3C)C1(C)C` [Compound 550, Ingenol 3-(2-methyl-3-oxo-4-oxaspiro[4.5]dec-1-ene-1-carboxylate)], the figures for the EC50 (in experiment [1]; in the experiment on HeLa cells; in experiment [2]) were under 20 nM, under 150 µM and under 20 nM, respectively.

`CC1=C[C@]23C(=O)[C@@H](C=C(CO)[C@@H](O)[C@]2(O)[C@H]1OC(=O)N1Cc2ccccc2C1)[C@H]1[C@@H](C[C@H]3C)C1(C)C` [Compound 745, Ingenol 3-(isoindoline-2-carboxylate)]: the EC50 is under 20 nM in experiment [1], 150 to 350 µM in the experiment with HeLa cells and under 20 nM in experiment [2].

Regarding `CC1=C[C@]23C(=O)[C@@H](C=C(CO)[C@@H](O)[C@]2(O)[C@H]1OC(=O)c1c(Cl)c(C)nn1C)[C@H]1[C@@H](C[C@H]3C)C1(C)C` [Compound 540, Ingenol 3-(4-chloro-2,5-dimethyl-pyrazole-3-carboxylate)], the EC50 in experiment [1] was under 20 nM; with HeLa cells, under 150 µM; in experiment [2] it was under 20 nM.

Turning to `COc1ccc2c(c1)c(C(=O)O[C@H]1C(C)=C[C@]34C(=O)[C@@H](C=C(CO)[C@@H](O)[C@]13O)[C@H]1[C@@H](C[C@H]4C)C1(C)C)c(C)n2C` [Compound 565, Ingenol 3-(5-methoxy-1,2-dimethyl-indole-3-carboxylate)], the figures for the EC50 (in experiment [1]; in the experiment with HeLa cells; in experiment [2]) were under 20 nM, under 150 µM and under 20 nM, respectively.

Turning to `CC1=C[C@]23C(=O)[C@@H](C=C(CO)[C@@H](O)[C@]2(O)[C@H]1OC(=O)c1c(C)c2ccccc2n1C)[C@H]1[C@@H](C[C@H]3C)C1(C)C` [Compound 571, Ingenol 3-(1,3-dimethylindole-2-carboxylate)], the EC50 in experiment [1] was under 20 nM; with HeLa cells, under 150 µM; in experiment [2], under 20 nM.

For `CC1=C[C@]23C(=O)[C@@H](C=C(CO)[C@@H](O)[C@]2(O)[C@H]1OC(=O)N(C)c1ccccc1F)[C@H]1[C@@H](C[C@H]3C)C1(C)C` [Compound 738, Ingenol 3-(N-(2-fluoro-phenyl)-N-methyl-carbamate)], the 50% effective concentration (EC50) in experiment [1] was under 20 nM; with HeLa cells it was 150 to 350 µM; in experiment [2], 20 to 100 nM.

Regarding `CC1=C[C@]23C(=O)[C@@H](C=C(CO)[C@@H](O)[C@]2(O)[C@H]1OC(=O)c1noc2ccccc12)[C@H]1[C@@H](C[C@H]3C)C1(C)C` [Compound 517, Ingenol 3-(1,2-benzoxazole-3-carboxylate)], the EC50 in experiment [1] is 20 to 100 nM; in the experiment with HeLa cells, under 150 µM; in experiment [2] it was over 100 nM.

For `CC1=C[C@]23C(=O)[C@@H](C=C(CO)[C@@H](O)[C@]2(O)[C@H]1OC(=O)c1c(C)nn(C(C)C)c1C)[C@H]1[C@@H](C[C@H]3C)C1(C)C` [Compound 546, Ingenol 3-(1-isopropyl-3,5-dimethyl-pyrazole-4-carboxylate)], the EC50 was under 20 nM in experiment [1], 150 to 350 µM with HeLa cells and under 20 nM in experiment [2].
